What is called EC50 is the concentration that produces a half-maximal response.

The experiment addresses T1, human apelin receptor (Homo sapiens, UniProt P35414).
T1 construct: expressed in transfected cells
T1 sequence (P35414 1-380): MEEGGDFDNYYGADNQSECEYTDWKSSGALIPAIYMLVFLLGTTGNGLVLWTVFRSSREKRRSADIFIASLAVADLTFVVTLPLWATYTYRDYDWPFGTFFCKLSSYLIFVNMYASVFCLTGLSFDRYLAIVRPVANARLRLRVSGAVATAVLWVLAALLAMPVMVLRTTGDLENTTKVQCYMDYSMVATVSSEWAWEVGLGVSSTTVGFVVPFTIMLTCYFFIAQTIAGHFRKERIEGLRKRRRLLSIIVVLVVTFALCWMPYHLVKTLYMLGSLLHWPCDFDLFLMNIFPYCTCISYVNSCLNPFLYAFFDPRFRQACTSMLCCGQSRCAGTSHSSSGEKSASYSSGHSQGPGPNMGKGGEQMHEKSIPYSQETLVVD
Kind of experiment: Determination of agonism on the human apelin receptor by a calcium fluorescence assay (FLIPR). Format: cell-based. Particulars: HEK293 cells stably transfected with human apelin receptor and Giaq protein, Fluo-4 calcium fluorescence, read-out: EC50 (APJ agonism). A digest of the protocol:
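Agonist EC50s come from peak intracellular calcium transients recorded by FLIPR Tetra, scaled to the 1 μM apelin-13 maximum per plate. Test system: HEK293 stably transfected with human apelin receptor plus Giaq, Fluo-4-loaded (4 μM, 1 h, 37 °C, pH 7.4 buffer with probenecid); ≥7 concentrations, triplicates.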

In the case of `CCC(CC)n1c(Cc2cccs2)nc2cc(C(=O)N[C@@H](CC(C)C)[C@@H](O)CC(=O)O)ccc21` [Example 75, (3S,4S)-4-{[1-(1-Ethyl-propyl)-2-thiophen-2-ylmethyl-1H-benzoimidazole-5-carbonyl]-amino}-3-hydroxy-6-methyl-heptanoic acid], the EC50 was determined as 66 nM. In the case of `CCC(CC)n1c(Cc2ccco2)nc2cc(C(=O)NC(C)(Cc3ccccc3)C(=O)O)ccc21` (stereo not drawn) [Example 2, 2-{[1-(1-Ethyl-propyl)-2-furan-2-ylmethyl-1H-benzoimidazole-5-carbonyl]-amino}-2-methyl-3-phenyl-propionic acid], the EC50 came to 20100 nM. With `CC(C)C[C@H](NC(=O)c1ccc2c(c1)nc(Cc1ccccc1)n2C1CCCCC1)C(=O)O` [Example 148, (S)-2-[(2-Benzyl-1-cyclohexyl-1H-benzoimidazole-5-carbonyl)-amino]-4-methyl-pentanoic acid], the EC50 came to 15000 nM.

Turning to `CCC(CC)n1c(Cc2cccs2)nc2cc(C(=O)N[C@@H](CC(C)C)C(=O)NC3CCN(CC)CC3)ccc21` [Example 340, 1-(1-Ethyl-propyl)-2-thiophen-2-ylmethyl-1H-benzoimidazole-5-carboxylic acid [(S)-1-(1-ethyl-piperidin-4-ylcarbamoyl)-3-methyl-butyl]-amide], the EC50 is 185 nM. Regarding `CCC(CC)n1c(Cc2cccs2)nc2cc(C(=O)N[C@@H](CC(C)C)C(=O)NCCNS(C)(=O)=O)ccc21` [Example 402, 1-(1-Ethyl-propyl)-2-thiophen-2-ylmethyl-1H-benzoimidazole-5-carboxylic acid [(S)-1-(2-methanesulfonylamino-ethylcarbamoyl)-3-methyl-butyl]-amide], the EC50 was determined as 777 nM. Take `CCC(CC)n1c(Cc2cccs2)nc2cc(C(=O)N[C@@H](CC(C)C)C(=O)NC(C)CCCN(CC)CC)ccc21` (stereo partly drawn) [Example 314, 1-(1-Ethyl-propyl)-2-thiophen-2-ylmethyl-1H-benzoimidazole-5-carboxylic acid [(S)-1-(4-diethylamino-1-methyl-butylcarbamoyl)-3-methyl-butyl]-amide]: the EC50 was found to be 474 nM. For the compound `CCC(CC)n1c(Cc2cccs2)nc2cc(C(=O)N[C@@H](CC(C)C)C(=O)N3CCC(N4CCCCCC4)CC3)ccc21` [Example 335, 1-(1-Ethyl-propyl)-2-thiophen-2-ylmethyl-1H-benzoimidazole-5-carboxylic acid [(S)-1-(4-azepan-1-yl-piperidine-1-carbonyl)-3-methyl-butyl]-amide], the EC50 was 384 nM. Take `CCCC(CO)NC(=O)c1ccc2c(c1)nc(CC1CCCC1)n2C(CC)CC` (stereo not drawn) [Example 181, 2-Cyclopentylmethyl-1-(1-ethyl-propyl)-1H-benzoimidazole-5-carboxylic acid (1-hydroxymethyl-butyl)-amide]: the EC50 stood at 6950 nM. Take `CCC(CC)n1c(Cc2cccs2)nc2cc(C(=O)N[C@@H](CC(C)C)C(=O)NCCC3CCCN3C)ccc21` (stereo partly drawn) [Example 219, 1-(1-Ethyl-propyl)-2-thiophen-2-ylmethyl-1H-benzoimidazole-5-carboxylic acid {(S)-3-methyl-1-[2-(1-methyl-pyrrolidin-2-yl)-ethylcarbamoyl]-butyl}-amide]: the EC50 was 274 nM.

Take `CCCC(NC(=O)c1ccc2c(c1)nc(Cc1cccs1)n2C(CC)CC)c1ccccn1` (stereo not drawn) [Example 477, 1-(1-Ethyl-propyl)-2-thiophen-2-ylmethyl-1H-benzoimidazole-5-carboxylic acid (1-pyridin-2-yl-butyl)-amide]: the concentration for a half-maximal effect (EC50) is 2720 nM. With `CCC(CC)n1c(Cc2cccs2)nc2cc(C(=O)N[C@@H](CC(C)C)C(=O)NCCCCN3CCCC3)ccc21` [Example 253, 1-(1-Ethyl-propyl)-2-thiophen-2-ylmethyl-1H-benzoimidazole-5-carboxylic acid [(S)-3-methyl-1-(4-pyrrolidin-1-yl-butylcarbamoyl)-butyl]-amide] the figure was 242 nM; with `CCC(CC)n1c(Cc2cccs2)nc2cc(C(=O)N[C@@H](CC(C)C)C(=O)NC3CCOCC3)ccc21` [Example 249, 1-(1-Ethyl-propyl)-2-thiophen-2-ylmethyl-1H-benzoimidazole-5-carboxylic acid [(S)-3-methyl-1-(tetrahydro-pyran-4-ylcarbamoyl)-butyl]-amide], 407 nM. Regarding `CCC(CC)n1c(Cc2cccs2)nc2cc(C(=O)N[C@@H](CC(C)C)C(=O)NCC3CCN(CC(C)C)C3)ccc21` (stereo partly drawn) [Example 304, 1-(1-Ethyl-propyl)-2-thiophen-2-ylmethyl-1H-benzoimidazole-5-carboxylic acid {(S)-1-[(1-isobutyl-pyrrolidin-3-ylmethyl)-carbamoyl]-3-methyl-butyl}-amide], the EC50 was 461 nM. For `CC(C)C[C@H](NC(=O)c1ccc2c(c1)nc(Cc1ccsc1)n2C1CCCCC1)C(=O)O` [Example 152, (S)-2-[(1-Cyclohexyl-2-thiophen-3-ylmethyl-1H-benzoimidazole-5-carbonyl)-amino]-4-methyl-pentanoic acid], the EC50 turned out to be 3950 nM. For the compound `C[C@@H]1CCCC[C@H]1n1c(Cc2cccs2)nc2cc(C(=O)NC(CCC(F)(F)F)C(=O)O)ccc21` (stereo partly drawn) [Example 27, 5,5,5-Trifluoro-2-{[1-((1R,2R)-2-methyl-cyclohexyl)-2-thiophen-2-ylmethyl-1H-benzoimidazole-5-carbonyl]-amino}-pentanoic acid], the EC50 is 1860 nM.

`CCC(CC)n1c(Cc2cccs2)nc2cc(C(=O)N[C@@H](CC(C)C)C(=O)NCC3COCCO3)ccc21` (stereo partly drawn) [Example 393, 1-(1-Ethyl-propyl)-2-thiophen-2-ylmethyl-1H-benzoimidazole-5-carboxylic acid {(S)-1-[([1,4]dioxan-2-ylmethyl)-carbamoyl]-3-methyl-butyl}-amide]: the EC50 was determined as 1360 nM.

As to `CCC(CC)n1c(Cc2cccs2)nc2cc(C(=O)N[C@@H](CC(C)C)C(=O)NCCc3cccc(OC)c3)ccc21` [Example 360, 1-(1-Ethyl-propyl)-2-thiophen-2-ylmethyl-1H-benzoimidazole-5-carboxylic acid {(S)-1-[2-(3-methoxy-phenyl)-ethylcarbamoyl]-3-methyl-butyl}-amide], the EC50 turned out to be 21200 nM. With `CCC(CC)n1c(Cc2cccs2)nc2cc(C(=O)N[C@@H](CC(C)C)C(=O)NC3CC4CCCC(C3)N4C)ccc21` (stereo partly drawn) [Example 292, 1-(1-Ethyl-propyl)-2-thiophen-2-ylmethyl-1H-benzoimidazole-5-carboxylic acid [(S)-3-methyl-1-(9-methyl-9-aza-bicyclo[3.3.1]non-3-ylcarbamoyl)-butyl]-amide] the figure was 1220 nM; with `CC(C)C[C@H](NC(=O)c1ccc2c(c1)nc(Cc1ccsc1)n2-c1ccccc1)C(=O)O` [Example 136, (S)-4-Methyl-2-[(1-phenyl-2-thiophen-3-ylmethyl-1H-benzoimidazole-5-carbonyl)-amino]-pentanoic acid], 2700 nM.

For the compound `CC(C)C[C@H](NC(=O)c1ccc2c(c1)nc(Cc1cccs1)n2C1CCCC1C)C(=O)O` (single isomer, unassigned) [Example 430], the EC50 worked out at 1310 nM.

`CCC(CC)n1c(Cc2cccs2)nc2cc(C(=O)N[C@@H](CC(C)C)C(=O)N3CC4CC3CN4Cc3ccc(OC)cc3)ccc21` (stereo partly drawn) [Example 351, 1-(1-Ethyl-propyl)-2-thiophen-2-ylmethyl-1H-benzoimidazole-5-carboxylic acid {(S)-1-[5-(4-methoxy-benzyl)-2,5-diaza-bicyclo[2.2.1]heptane-2-carbonyl]-3-methyl-butyl}-amide]: the EC50 stood at 9290 nM. Turning to `CCC(CC)n1c(Cc2cccs2)nc2cc(C(=O)N[C@@H](CC(C)C)C(=O)NCCOc3ccccc3)ccc21` [Example 366, 1-(1-Ethyl-propyl)-2-thiophen-2-ylmethyl-1H-benzoimidazole-5-carboxylic acid [(S)-3-methyl-1-(2-phenoxy-ethylcarbamoyl)-butyl]-amide], the EC50 amounted to 16500 nM. As for `CCC(CC)n1c(Cc2cccs2)nc2cc(C(=O)N[C@@H](CC(C)C)C(=O)N3CCC(N4CCC(C)CC4)C3)ccc21` (stereo partly drawn) [Example 300, 1-(1-Ethyl-propyl)-2-thiophen-2-ylmethyl-1H-benzoimidazole-5-carboxylic acid {(S)-3-methyl-1-[3-(4-methyl-piperidin-1-yl)-pyrrolidine-1-carbonyl]-butyl}-amide], the figure is 732 nM.

Turning to `CC(C)C[C@@H](CC(=O)O)NC(=O)c1ccc2c(c1)nc(Cc1ccco1)n2C1CCCCC1C` (single isomer, unassigned) [Example 432], the 50% effective concentration (EC50) amounted to 32 nM. `C[C@@H]1CCCC[C@H]1n1c(Cc2cccs2)nc2cc(C(=O)NC(CC(=O)O)CC3CCCCC3)ccc21` (single isomer, unassigned) [Example 457]: the EC50 worked out at 1460 nM. With `CCC(CC)n1c(CC2CCCC2)nc2cc(C(=O)N[C@H](CC(=O)O)CC(C)C)ccc21` [Example 158, (S)-3-{[2-Cyclopentylmethyl-1-(1-ethyl-propyl)-1H-benzoimidazole-5-carbonyl]-amino}-5-methyl-hexanoic acid] the figure was 515 nM; with `CCC(CC)n1c(Cc2cccs2)nc2cc(C(=O)NC(C)(C(=O)O)C(C)C)ccc21` (stereo not drawn) [Example 5, 2-{[1-(1-Ethyl-propyl)-2-thiophen-2-ylmethyl-1H-benzoimidazole-5-carbonyl]-amino}-2,3-dimethyl-butyric acid], 9870 nM.

These data come from patent publication US9156796B2, “Benzoimidazole-carboxylic acid amide derivatives as APJ receptor modulators” (SANOFI, priority 2013, dated 2015).
